Molecular target: PI3-kinase p110-alpha/p85-alpha (Homo sapiens, UniProt P42336)
Assay: Biochemical Assay: PI3KA_FL: Genes encoding for full length p110alpha and p85alpha subunits of PI3Kalpha complex were subcloned from existing constructs into pFASTBAC Dual vector (Life Technologies, Carlsbad, Calif.) using standard cloning procedures. Gene encoding p110alpha subunit was subcloned into polyhedrine promoter while gene encoding p85alpha subunit was subcloned into p10 promoter. Additionally, sequence encoding for histidine tag and Tobacco Etch Virus ("TEV") cleavage site preceded p110alpha ORF (Open Reading Frame). The biochemical assays of kinase activity of full-length PI3Kalpha (full-length p110alpha/p85a) or truncated PI3Kalpha (p110alpha/iSH2 p85a) were conducted using a fluorescence polarization format similar to the procedure of Yuan J., et al., (2011) PF-04691502, a Potent and Selective Oral Inhibitor of PI3K and mTOR Kinases with Antitumor Activity, Mol Cancer Ther. 10, 2189-2199. The enzymatic reactions were conducted in 50 uL volumes in 96-well plates.
Assay type: protein-complex assay

PI3-kinase p110-alpha/p85-alpha, sequence (P27986 whole entry, the tested form may be a part): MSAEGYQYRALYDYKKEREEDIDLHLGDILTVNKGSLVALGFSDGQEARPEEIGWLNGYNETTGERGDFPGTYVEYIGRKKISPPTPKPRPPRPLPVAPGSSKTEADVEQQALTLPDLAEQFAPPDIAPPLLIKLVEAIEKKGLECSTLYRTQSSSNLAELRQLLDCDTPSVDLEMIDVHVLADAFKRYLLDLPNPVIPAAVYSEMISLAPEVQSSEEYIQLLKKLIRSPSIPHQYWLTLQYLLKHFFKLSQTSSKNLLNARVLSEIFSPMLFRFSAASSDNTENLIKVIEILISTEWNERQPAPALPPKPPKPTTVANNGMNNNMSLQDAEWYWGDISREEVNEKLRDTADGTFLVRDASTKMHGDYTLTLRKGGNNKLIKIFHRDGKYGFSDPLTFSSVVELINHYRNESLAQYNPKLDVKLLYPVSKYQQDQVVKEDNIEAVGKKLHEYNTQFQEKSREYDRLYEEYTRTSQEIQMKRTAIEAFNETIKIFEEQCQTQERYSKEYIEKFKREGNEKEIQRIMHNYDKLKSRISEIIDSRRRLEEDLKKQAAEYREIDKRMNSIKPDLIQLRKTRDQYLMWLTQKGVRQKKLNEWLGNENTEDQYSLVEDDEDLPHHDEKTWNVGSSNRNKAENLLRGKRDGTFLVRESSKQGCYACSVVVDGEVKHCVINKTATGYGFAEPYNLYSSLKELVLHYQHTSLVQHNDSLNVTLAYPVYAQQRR
PI3-kinase p110-alpha/p85-alpha, sequence (P42336 whole entry, the tested form may be a part): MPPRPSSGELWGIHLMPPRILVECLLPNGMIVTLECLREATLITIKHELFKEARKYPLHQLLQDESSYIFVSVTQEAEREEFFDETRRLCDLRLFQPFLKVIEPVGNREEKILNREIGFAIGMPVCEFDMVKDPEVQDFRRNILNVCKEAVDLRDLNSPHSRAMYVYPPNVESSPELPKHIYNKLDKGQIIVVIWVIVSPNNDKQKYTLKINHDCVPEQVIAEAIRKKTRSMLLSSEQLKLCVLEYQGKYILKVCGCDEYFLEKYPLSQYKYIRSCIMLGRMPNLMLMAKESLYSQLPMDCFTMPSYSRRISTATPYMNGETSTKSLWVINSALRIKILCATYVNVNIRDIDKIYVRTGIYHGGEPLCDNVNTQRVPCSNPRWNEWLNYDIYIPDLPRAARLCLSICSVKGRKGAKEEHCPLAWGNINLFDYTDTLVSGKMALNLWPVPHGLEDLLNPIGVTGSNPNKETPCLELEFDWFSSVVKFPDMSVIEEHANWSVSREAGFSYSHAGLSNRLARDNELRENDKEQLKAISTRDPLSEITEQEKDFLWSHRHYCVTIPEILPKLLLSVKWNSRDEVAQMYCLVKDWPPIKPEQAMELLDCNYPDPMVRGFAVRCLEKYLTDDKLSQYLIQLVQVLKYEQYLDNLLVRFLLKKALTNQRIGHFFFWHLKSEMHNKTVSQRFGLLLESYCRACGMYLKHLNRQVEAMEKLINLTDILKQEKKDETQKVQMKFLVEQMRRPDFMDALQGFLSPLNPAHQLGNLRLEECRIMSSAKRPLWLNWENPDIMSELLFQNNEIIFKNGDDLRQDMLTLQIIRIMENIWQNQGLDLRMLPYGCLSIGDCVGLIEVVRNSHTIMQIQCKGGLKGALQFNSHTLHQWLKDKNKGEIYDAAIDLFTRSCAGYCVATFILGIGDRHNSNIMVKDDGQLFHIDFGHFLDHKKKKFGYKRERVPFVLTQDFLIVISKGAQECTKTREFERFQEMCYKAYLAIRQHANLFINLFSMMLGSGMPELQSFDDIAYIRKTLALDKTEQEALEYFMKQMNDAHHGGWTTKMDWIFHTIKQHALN

CC(=O)N[C@H]1C(C)(C)[C@H](N2CCc3c(-c4cnc(N)nc4)nc(N4CCOCC4)nc32)C1(C)C
Ki: 1.14 nM

Source: ChEMBL document CHEMBL3886531, “Dihydropyrrolopyrimidine derivatives” (2016)
